According to PubChem BioAssay (NCI):
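48-hour exposure; five concentrations; linearly interpolated endpoints. The concentration for full growth arrest is given as TGI.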

Tests used:
Experiment in all cases: inhibition of tumour cell growth, NCI panel, 48 h
MCF7 breast = tested on: MCF7 breast
HL-60(TB) leukemia = tested on: HL-60(TB) leukemia
ACHN renal = tested on: ACHN renal
CAKI-1 renal = tested on: CAKI-1 renal
SNB-19 CNS = tested on: SNB-19 CNS
786-0 renal = tested on: 786-0 renal
TK-10 renal = tested on: TK-10 renal
SK-MEL-28 melanoma = tested on: SK-MEL-28 melanoma
UO-31 renal = tested on: UO-31 renal
T-47D breast = tested on: T-47D breast
DU-145 prostate = tested on: DU-145 prostate
U251 CNS = tested on: U251 CNS
MDA-MB-231 breast = tested on: MDA-MB-231 breast
BT-549 breast = tested on: BT-549 breast
MALME-3M melanoma = tested on: MALME-3M melanoma
SK-MEL-5 melanoma = tested on: SK-MEL-5 melanoma
MOLT-4 leukemia = tested on: MOLT-4 leukemia
SF-539 CNS = tested on: SF-539 CNS

Row | SMILES | TGI (MCF7 breast) [µM] | TGI (HL-60(TB) leukemia) [µM] | TGI (ACHN renal) [µM] | TGI (CAKI-1 renal) [µM] | TGI (SNB-19 CNS) [µM] | TGI (786-0 renal) [µM] | TGI (TK-10 renal) [µM] | TGI (SK-MEL-28 melanoma) [µM] | TGI (UO-31 renal) [µM] | TGI (T-47D breast) [µM] | TGI (DU-145 prostate) [µM] | TGI (U251 CNS) [µM] | TGI (MDA-MB-231 breast) [µM] | TGI (BT-549 breast) [µM] | TGI (MALME-3M melanoma) [µM] | TGI (SK-MEL-5 melanoma) [µM] | TGI (MOLT-4 leukemia) [µM] | TGI (SF-539 CNS) [µM]
1 | Nn1c(CCCCCCCCc2nnc(COc3ccccc3)n2N)nnc1COc1ccccc1 | > 100 | > 100 | > 100 | > 100 | > 100 | > 100 | > 100 | > 100 | > 100 | > 100 | > 100 | > 100 | > 100 | > 100 | > 100 | > 100 | > 100 | 
2 | Cc1nc2c(cc1C(=O)N/N=C/c1ccc([N+](=O)[O-])cc1)c(=O)n(C)c(=O)n2C | > 100 | > 100 | > 100 | > 100 | 56.7 | > 100 | > 100 | > 100 | > 100 | > 100 | > 100 | 57 | 65.7 | > 100 | > 100 | > 100 | > 100 | 
3 | Cc1cc(C)c2c(c1)C1=NCCN1C2(O)c1ccc(Cl)cc1 (centres undefined) | 34.3 | 49.4 | 29.6 | 31.5 | 31.7 | 29.6 | 15.5 | 31 | 26.9 | 41.7 | 40.5 | 32.3 | 28.2 | 26.4 |  | 27.7 | > 100 | 29
4 | COC(=O)c1c2c(cc3c1CC1(C3)Cc3cc4c(c(C(C)=O)c3C1)CCC4)C=CC2 (centres undefined) | > 31.6 | > 31.6 | > 31.6 | > 100 | > 31.6 | > 31.6 | > 31.6 | > 31.6 | > 31.6 | > 31.6 | > 31.6 | > 31.6 | > 31.6 | > 31.6 |  | > 31.6 | > 31.6 | > 31.6
5 | COc1cc2c(cc1OC)CN1CCCc3cc(OC)c(OC)cc3C1C2 (centres undefined) | 95.2 |  | > 100 | > 100 | > 100 | > 100 | > 100 | > 100 | > 100 | > 100 | > 100 | > 100 | > 100 | > 100 | > 100 | > 100 | > 100 | 50.1
6 | COC(=O)[C@@]1(Cc2ccc(O)cc2)C[C@@H]2Cc3ccccc3N2N1 | > 100 |  | > 100 | > 100 | > 100 | > 100 | > 100 | > 100 | > 100 | > 100 | > 100 | > 100 | > 100 | > 100 | > 100 | > 100 | > 100 | > 100
7 | OC(c1cc2ccccc2[nH]1)C1(c2cccnc2)SCCCS1 (centres undefined) | > 100 | > 100 | > 100 | > 100 | > 100 | > 100 | > 100 | > 100 | > 100 | > 100 | > 100 | > 100 | > 100 | > 100 | > 100 | > 100 | > 100 | 
8 | C[n+]1c2ccccc2n2c3ccccc3c(NCCc3ccccn3)c(C#N)c21 | 2.97 | 7.9 | > 20.1 | 6.68 | > 26.8 | 7.58 | 7.88 | 5.51 | 6.51 | 13.7 | 7.01 | 12.7 | 6.83 | > 23.3 | 12 |  | > 22.5 | 12.6
9 | CCOC(=O)/C(N=Nc1ccc(-n2c(C)nc3ccc(Br)cc3c2=O)cc1)=C(/C)O | > 100 | > 100 | > 100 | > 100 | > 100 | > 100 | > 100 | > 100 | > 100 | > 100 | > 100 | > 100 | > 100 | > 100 |  | 31.9 | > 100 | > 100
10 | N#CCOc1ccc(/C=C/C(=O)c2ccc(Cl)cc2)cc1 | 54.1 | > 100 | > 100 |  | 61.7 | 48.1 | 74.5 | > 100 | 88.6 | 61.2 | > 100 | 99.3 | 85.5 | 11.7 | 58.4 | 43.6 | > 100 | 36.4
11 | CCOC(=O)CSc1nnc(CSc2nc(-c3ccccc3)c(-c3ccccc3)[nH]2)n1-c1ccccc1 | > 100 | 98.8 | 35.5 |  | > 100 | > 62.9 | 31.9 | > 100 | 38.9 | 89.7 | 30.1 | > 100 | > 100 | > 100 | > 100 | > 100 | > 93.8 | 41.6
12 | COC1=CC(=O)c2c(cc(COP(=O)(OCC3OC(n4cc(F)c(=O)[nH]c4=O)CC3O)N(C)CCCCCl)n2C)C1=O (centres undefined) | 1.84 | 16 | > 100 |  | > 70.5 | > 69.2 | > 100 | > 68.8 | > 69.3 | 36.2 | 33.3 | 37.7 | 35.8 | > 100 | 9.97 | 1.34 | > 54 | 
13 | O=c1cc(N2CCCC2)[nH]c(=O)n1-c1ccc(F)cc1 | > 100 | > 100 | > 100 | > 100 | > 100 | > 100 | > 100 | > 100 |  | > 100 | > 100 | > 100 | > 100 | > 100 | > 100 |  | > 100 | > 100
14 | CCOC(=O)C1=c2[nH]c3cccc4cccc(c43)n2C(=O)CC1c1ccccc1 (centres undefined) | > 100 | > 100 | > 100 | > 100 | > 100 | > 100 | > 100 | > 100 | > 100 | > 100 | > 100 | > 100 | > 100 | > 100 | > 100 | > 100 | > 100 | 
15 | Cc1ccc(C2SCC(=O)N2c2ccc(-c3ccc(-n4c(-c5ccccc5)nc5ccccc5c4=O)cc3)cc2)cc1 (centres undefined) | > 100 | > 100 | > 100 | > 100 | > 100 | > 100 | > 100 | > 100 | > 100 | > 100 | > 100 | > 100 | > 100 | > 100 | > 100 | > 100 | > 100 | 
16 | CSc1c(C(=O)Nc2ccc(C)cc2)c(N)n(N)c(=O)c1C#N | > 100 | > 100 |  | > 100 | > 100 | > 100 | > 100 | > 100 | > 100 | > 100 | > 100 | > 100 | > 100 | > 100 | > 100 | > 100 | > 100 | > 100
17 | O=c1oc2ccccc2c(O)c1/C=N/C(=S)NCc1ccccc1 | > 100 | > 100 | > 100 | 63.7 | > 100 | > 100 | 51.8 | > 100 | > 100 | > 100 | > 100 | > 100 | > 100 | 41.5 |  | > 100 | > 100 | > 100
18 | COC1(OC)N=C(N)C2(C#N)C3(C(=O)N(C(C)C)N=C3C)C12C#N (centres undefined) | > 100 | > 100 | > 100 | > 100 | > 100 | > 100 |  | > 100 | > 100 | > 100 | > 100 | > 100 | > 100 | > 100 | > 100 |  | > 100 | > 100
19 | CN1C(=O)C(C(N)=O)C2CC1(C)Oc1ccccc12 (centres undefined) | > 100 | > 100 | > 100 | > 100 | > 100 | > 100 |  | > 100 |  | > 100 | > 100 | > 100 | > 100 | > 100 | > 100 | > 100 | > 100 | 
20 | O=C(NNC(=S)Nc1ccc(Br)cc1)c1cc(-c2ccccc2)nc2ccccc12 | 47.1 |  | > 100 | 72.6 | > 100 | 33.2 | 42.2 | 53 | 36.4 | 60.9 | 40.8 | 32.5 | 65.9 | 60.9 | 43.6 | 30.5 | 52.9 | 31.3
21 | Cc1c(-c2ccccc2)c(C#N)c2nnn(C3CCCCC3)c(=O)n12 | > 100 | > 100 | > 100 | 47.1 | > 100 | > 100 | > 100 | > 100 | 6.85 | > 100 | > 100 | > 100 | 66 | > 100 | > 100 | > 100 |  | > 100
22 | O=c1c2ccccc2nc2n1C(c1ccc([N+](=O)[O-])cc1)C2(c1ccccc1)c1ccccc1 (centres undefined) | > 100 | > 100 | > 100 | > 100 | > 100 | > 100 | > 100 | > 100 |  | > 100 | > 100 | > 100 | > 100 | > 100 | > 100 | > 100 | > 100 | > 100
23 | COC(=O)C(C(=O)C(=O)Nc1ccccc1C#N)c1nc2ccc([N+](=O)[O-])cc2[nH]c1=O (centres undefined) | > 100 |  | > 100 | > 100 | > 100 | > 100 | > 100 | > 100 | > 100 | > 100 | > 100 | > 100 | > 100 | > 100 | > 100 | > 100 | > 100 | > 100
24 | COC(=O)c1ccc(NCc2c(O)ccc(O)c2Br)cc1Cl | 32.2 | 4.52 | 30.6 | 29.9 | > 100 | 32.6 |  | 30.7 | 29.8 | 43.3 | 30.4 | 30.4 | 29.4 | 24.7 | 33.2 | 34.6 | 40.9 | 30.4
25 | COc1cccc(C2ON=C(c3ccccc3)N2C23CC4CC(CC(C4)C2)C3)c1 (centres undefined) | > 10 | > 10 | > 10 | > 10 | > 10 | > 10 | > 10 | > 10 |  | > 10 | > 10 | > 10 | > 10 | > 10 | > 10 | > 10 | > 10 | > 10
26 | COc1cc(/C=C/c2nc(N)nnc2C)cc(OC)c1OC | > 100 | 8.36 | > 56.1 | > 100 | > 82.2 | > 60.6 | > 77.3 | > 100 | > 42 | > 100 | > 100 | > 100 | > 100 | > 64 | 32.8 | 52.2 | > 90.7 | 
27 | COc1cc(C(=O)C2C(=O)c3ccccc3C2C2(O)c3ccccc3CC2C(O)c2cc(OC)c(OC)c(OC)c2)cc(OC)c1OC (centres undefined) | > 100 |  | > 100 | > 100 | > 100 | > 100 | > 100 | > 100 | > 100 | > 100 | > 100 | > 100 | > 100 | > 100 | > 100 | > 100 | > 100 | > 100
